Patent publication US7981623B2, “Repressor of skeletal muscle differentiation, nucleic acids coding therefor and the use thereof in diagnosis and therapy” (Universitaetsklinikum Freiburg, priority 2002, dated 2011)
Entries after “also recorded” stand apart in the source; their conditions may differ. One block for each compound: values may come before it.

Legend:
[1] = test system: Gal4-RE-controlled complex and synthetic minimal reporter constructs; assay: Gal4-DBD fusion repression, transient transfection luciferase reporter; assay type: cell-based; conditions: for effect of HDAC inhibitor on Gal-GRIM1 repression: trichostatin A 300 nM, sodium butyrate 5 mM; for transcriptional repression: Gal4-DBD context, all reporter systems described; for repression potential as Gal4-DBD fusion (in words): transient transfections
Description: To determine the transcriptional properties of hsGRIM1 proteins in eukaryotic cells, pCMX-hsGRIM1 expression plasmids were cotransfected with luciferase (LUC) reporter plasmids. Expression of the particular hsGRIM1 protein in a pCMX expression plasmid is under the control of the cytomegalovirus promoter. Luciferase expression in the LUC reporter plasmids used is controlled either by the thymidine kinase (TK) promoter, an E1b minimal promoter (TATA box), or by the respectively indicated complex promoters.
Transfection takes place by the calcium phosphate method or by the DOTAP liposomes method (Roche Diagnostics, product information). Unless otherwise indicated, 10^5 cells/well were seeded in 1 ml of culture medium in 12-well dishes. In the CaPO4 method, the plasmid DNA to be transfected is coprecipitated with calcium phosphate, and the precipitate is distributed to the cells capable of division. The calcium phosphate precipitate is prepared by preparing the mixture indicated below for duplicates in 12-well dishes:
While agitating (vortexing), 80 μl of 2xBES buffer are slowly and uniformly added dropwise to this mixture. The precipitate is incubated at RT for 10 min and distributed uniformly to the cells (80 μl per well) and, after 8 hours, removed by washing with PBS. The cells are incubated in fresh culture medium for a further 18 to 24 h. • BES buffer (2×): 50 mM N,N-bis[2hydroxyethyl]-2-aminoethanesulfonic acid; 280 mM NaCl; 1.5 mM Na2HPO4.2H2O; pH 6.95
Transiently transfected cells are washed once with PBS and lyzed by adding 50 μl of reporter lysis buffer (Promega) and further disrupted by freezing at −80° C. Cell lysates are transferred into Eppendorf reaction vessels, and cell detritus is pelleted at 14 000 rpm for 2′. 10 μl portions of the lysates are pipetted into 96-well microtiter plates to determine the luciferase activity. The luciferase assay took place in an EG&G Berthold Microluminomat. 40 μl of luciferase assay buffer are injected into the 10 μl of cell lysate, and the resulting chemiluminescence is determined in a time integral of 10″. The measured values for the luciferase activity are related to the amount of protein present in the cell lysate. For this purpose, 3 μl portions of the lysates are mixed in 96-well microtiter plates with 100 μl of Bradford assay reagent (BioRad) diluted 1:5 with H2O, and the absorption of the solution is determined at 595 nm. Relative luciferase activities are found from the ratio of the luciferase activity to the protein absorption. • Luciferase assay buffer: 200 mM tricine; 1.07 mM (MgCO3).4Mg(OH)2; 0.1 M MgSO4, 10 mM EDTA (pH 8.0); 33 mM DTT; […]; […] acetyl-coenzyme A; […] glowworm luciferin.
All the described data were obtained with the hsGRIM1 clone. […] Gal-GRIM1 represses expression of reporter genes both of Gal4-RE-controlled complex and synthetic minimal reporter constructs. The repression potential of GRIM1 is distinctly greater for example compared with the corepressor Gal-SuN-CoR. In these experiments, the appropriate corepressors are transiently expressed as heterologous Gal4-DBD fusion proteins in cells. The repression capacity on various synthetic promoter-reporter constructs compared with equal quantities of transfected wild-type Gal4-DBD is determined by luciferase reporter gene expression (FIG. 8).
Gal-GRIM1 is equally strong as a repressor as a large number of described corepressors such as, for example, Gal-HDAC1-10, Gal-CBF1, Gal-Alien and represses only insignificantly weaker than Gal-N-CoR-RD or Gal-SMRT-RD. The repression potential of Gal-GRIM1 was investigated in conjunction with the complex Gal43x-tk-LUC and Gal-MMTV-LUC promoter/reporter constructs and in conjunction with the minimal promoter/reporter constructs Gal5x-E1b-TATA-box and Gal3x-βglobin-TATA-LUC. […]

[2] = test system: differentiating C2C12 skeletal muscle cells; assay: GRIM1 relocalization in differentiating C2C12 cells under signal pathway inhibitors; assay type: cell-based, mouse; conditions: day 0 to day 6 in differentiation medium; Gö6850 1 μM, LY294002 10 μM, Ro31-8220 0.5 μM, PD98059 10 μM, fasudil 10 μM
Method: The cells were cultured in the media recommended by the ATCC on 15 cm cell culture dishes under sterile conditions. Cells are subcultured in a ratio of 1:5 to 1:20 every two to three days and kept at a maximum of 60% confluence. Old medium is removed, and the cells are washed with PBS buffer and treated with trypsin/EDTA solution (0.25% trypsin, 0.04% EDTA in PBS buffer) until they are detached from the culture dish. The cells are isolated in fresh medium and subcultured on new subculture dishes. • PBS buffer: 137 mM NaCl; 2.7 mM KCl; 8 mM Na2HPO4; 1.8 mM KH2PO4 • Media used: DMEM (Gibco BRL), 100 IU penicillin G/ml, 100 μg/ml streptomycin, 2 mM glutamine, 10% fetal calf serum. As differentiation medium for C2C12 and L6 cells, 10% FCS was replaced by 2% horse serum.
Cells are seeded in the desired cell density on autoclaved slides and fixed on the support with 5% paraformaldehyde for 10′. Cell membranes are made permeable for antibodies by incubation in 0.2% TritonX100 for 10′. Before the incubation with the primary antibodies, the cells are blocked in 0.2% gelatin (in PBS) at RT for 1 h. Anti-hsGRIM1 antibodies are diluted 1:500 in 0.2% strength gelatin solution and incubated at RT for 1 h. After washing three times with PBS for 5′ each time, the respective fluorochrome-coupled secondary antibody is added 1:2000 in 0.2% gelatin solution and incubated in the dark at RT for 30′. After the washing steps, the nucleus is counterstained with DAPI (1 μg/ml PBS, Roche Diagnostics) and the cells are finally washed twice in 0.1% TritonX100 in order to minimize autofluorescences. The slides are preserved in Fluoromount M (Southern Biotechnology Associates) and analyzed using a fluorescence microscope.
Treatment of differentiating C2C12 skeletal muscle cells with various inhibitors of central signal transduction pathways have no effect on relocalization or the number of nuclear speckles of GRIM1 within the investigated differentiation from day 0 to day 6 after addition of the differentiation medium. Tested inhibitors: pan-HDAC inhibitors TSA and sodium butyrate, protein kinase inhibitors Gö6850 (specific PKC inhibitor, 1 μM), LY294002 (specific P13kinase inhibitor, 10 μM), Ro31-8220 (PKC broad-spectrum inhibitor, 0.5 μM), PD98059 (MEK1 inhibitor, 10 μM), fasudil (Rock kinase inhibitor, 10 μM), SB203580 (p38α/β inhibitor). Overacetylation and blockade of central signal cascades had drastic morphologically visible consequences for some of the cells, but there was no effect on relocalization or the number of detectable GRIM1 speckles.

[3] = test system: androgen receptor (hsAR); assay: GRIM1-AR protein-protein interaction (pulldown, co-IP, yTHS); assay type: binding, human
Method: Further functional characterization of the interaction domains within GRIM1 was carried out by pulldown analyses with the expressible fragments of GRIM1.

[4] = test system: nuclear export of GFP-GRIM1 (exportin1/Crm1); assay: Nuclear export of GFP-GRIM1 under leptomycin B; assay type: cell-based; conditions: 20 nM for 6 h before cell harvesting
[5] = test system: acetylation of core histones by p300; assay: INHAT assay (in vitro acetylation of histones by p300); assay type: biochemical; conditions: core histones H3, H2A, H2B and H4
Method: INHAT assays were carried out as described by Eckner et al. and by Seo et al. (Eckner et al., 1996, Genes and Development 10 (19), pp 2478-2490, Seo et al., 2001, Cell 104 (1), pp 119-130). Histones or histone mixtures are preincubated with the appropriate peptides in a total of 50 μl of HAT buffer, then mixed with bacterially expressed p300 HAT domains and 0.5 μCi of ^14C-acetyl-coenzyme A, and incubated at 30° C. and 1000 rpm for 2 h. Reactions are stopped by adding SDS Laemmli buffer. Proteins are fractionated in denaturing SDS-PAGE, and the gels are incubated in Amplify (NEN) for 1 h. Acetylations are detected in autoradiographies.
It was possible to show in GST pulldown analyses that the N- and C-terminal fragments of hsGRIM1 can associate directly with histones in vitro.

[6] = test system: core histones H4, H2B, H2A and H3; assay: GST pulldown with core histones; assay type: binding
Method: A protein is expressed as GST fusion protein in E. coli, immobilized on a GST-binding carrier material, and incubated with the potential interactant which is usually radiolabeled. In the subsequent washing steps, proteins which interact only weakly or not at all are washed off the carrier material or the carrier material-bound GST fusion protein. The amount of associated interactant can be determined by fractionation of the proteins by SDS-PAGE and subsequent autoradiography. To check the specificity of interaction between potential interactant and GST fusion protein, the interaction with GST alone is examined.
Aliquots of GST-GRIM1 fragments or GST-containing E. coli crude lysate are mixed in each case with 30 μl of glutathione(GSH)-Sepharose and incubated on a bohemian wheel at 4° C. for 1 h. The GSH-Sepharose is pelleted by centrifugation (1′ at 2000 rpm) and washed twice in pulldown buffer. The pellet is then resuspended in 500 μl of pulldown buffer and incubated with the in vitro translated, […] potential interactant at 4° C. on the bohemian wheel for 1 h. […]

brought about a change in the transcriptional activity of Gal-GRIM1 ([1]; PKC inhibition or activation, various cell lines): Neither
Compound: CN(C)CCCn1cc(C2=C(c3c[nH]c4ccccc34)C(=O)NC2=O)c2ccccc21 [Gö6850]
effect on relocalization or number of nuclear speckles of GRIM1 [2]: no effect

Compound: O=c1cc(N2CCOCC2)oc2c(-c3ccccc3)cccc12 [LY294002]
effect on relocalization or number of nuclear speckles of GRIM1 [2]: no effect

Compound: COc1cccc(-c2cc(=O)c3ccccc3o2)c1N [PD98059]
effect on relocalization or number of nuclear speckles of GRIM1 [2]: no effect

Compound: Cn1cc(C2=C(c3cn(CCCSC(=N)N)c4ccccc34)C(=O)NC2=O)c2ccccc21 [Ro31-8220]
effect on relocalization or number of nuclear speckles of GRIM1 [2]: no effect

Compound: C[S+]([O-])c1ccc(-c2nc(-c3ccncc3)c(-c3ccc(F)cc3)[nH]2)cc1 (centres unmarked) [SB203580]
effect on relocalization or number of nuclear speckles of GRIM1 [2]: no effect

Compound: O=S(=O)(c1cccc2cnccc12)N1CCCNCC1 [fasudil]
effect on relocalization or number of nuclear speckles of GRIM1 [2]: no effect

influence of AR antagonist on GRIM1-AR interaction [3]: cannot be influenced
Compound: CC(C)(O)C(=O)Nc1ccc([N+](=O)[O-])c(C(F)(F)F)c1 [hydroxyflutamide]

Compound: CCC(=C/[C@H](C)C/C=C/C(C)=C/[C@@H](C)C(=O)[C@@H](C)[C@H](O)[C@@H](C)C/C(C)=C/C(=O)O)/C=C/[C@@H]1OC(=O)C=C[C@@H]1C [leptomycin B]
effect on nuclear export of GFP-GRIM1 or GFP-GRIM1 aa234-336 [4]: not influenced

Compound: CCCC(=O)[O-].[Na+] [sodium butyrate]
effect of HDAC inhibitor on Gal-GRIM1 repression [1]: not impaired
effect on relocalization or number of nuclear speckles of GRIM1 [2]: no effect

effect on general transcription ([1]; cotransfection of full-length p300 and Gal-GRIM1): enhances general transcription
Compound: CC(/C=C/C(=O)NO)=C\[C@@H](C)C(=O)c1ccc(N(C)C)cc1 [trichostatin A]
effect of HDAC inhibitor on Gal-GRIM1 repression [1]: not impaired; also recorded: relative repression by Gal-GRIM1 remains unchanged; also recorded: not influenced
effect on relocalization or number of nuclear speckles of GRIM1 [2]: no effect

Compound: GRIM1 aa 3-147: recombinantly expressed N-terminal hsGRIM1 fragment, tag not stated
inhibition of histone acetylation by p300 (INHAT activity) [5]: efficiently blocks acetylation

Compound: GST-E: GST-fused hsGRIM1 aa 3-147
interaction with core histones [6]: marked interaction

interacted with the AR in pulldown ([3]; GST fragments, in the sequence M≧H>>I): interacted with the AR
Compound: GST-I: GST-fused hsGRIM1 aa 609-749
interaction with core histones [6]: marked interaction

transcriptional repression [1]: 2 ×
repression potential as Gal4-DBD fusion (in words) [1]: smallest repressive effect
Compound: Gal-E: hsGRIM1 aa 3-147 as Gal4-DBD fusion

transcriptional repression [1]: 2 ×
repression potential as Gal4-DBD fusion (in words) [1]: smallest repressive effect
Compound: Gal-I: hsGRIM1 aa 609-749 as Gal4-DBD fusion (Table 8; Table 2 differs)

interaction with hsAR ([3]; tfIP, utfIP, yTHS, PD and tT): strong direct interaction
Compound: mmGRIM1: mouse GRIM1, 750 amino acids, Seq. ID No. 4
